What was measured:
CCCCCCC(=O)C(=O)O = experiment: purified protein, by the assay type; conditions: pH 7.5; 30.0 °C
[1] = target: Citrobacter freundii MGH 56 isopropylmalate synthase (Gene Accession No. KDF09799, SEQ ID NO: 1) variant 1409, H97A/S139G/N167G/P169A/G462D (Citrobacter freundii, UniProt A0A0D7LMP4, G462D/H97A/N167G/P169A/S139G); conditions: pH 7.5, 30° C.
[2] = target: Enterobacter cloacae isopropylmalate synthase (Gene Accession No. WP_014830637, SEQ ID NO: 2) variant 1414, H97A/S139G/N167G/P169A/G462D (Enterobacter cloacae, UniProt A0A0H3CGL5, G462D/H97A/N167G/P169A/S139G); conditions: pH 7.5, 30° C.
Enterobacter cloacae isopropylmalate synthase (Gene Accession No. WP_014830637, SEQ ID NO: 2) variant 1414, H97A/S139G/N167G/P169A/G462D, sequence (A0A0H3CGL5 entry or part of it G462D/H97A/N167G/P169A/S139G): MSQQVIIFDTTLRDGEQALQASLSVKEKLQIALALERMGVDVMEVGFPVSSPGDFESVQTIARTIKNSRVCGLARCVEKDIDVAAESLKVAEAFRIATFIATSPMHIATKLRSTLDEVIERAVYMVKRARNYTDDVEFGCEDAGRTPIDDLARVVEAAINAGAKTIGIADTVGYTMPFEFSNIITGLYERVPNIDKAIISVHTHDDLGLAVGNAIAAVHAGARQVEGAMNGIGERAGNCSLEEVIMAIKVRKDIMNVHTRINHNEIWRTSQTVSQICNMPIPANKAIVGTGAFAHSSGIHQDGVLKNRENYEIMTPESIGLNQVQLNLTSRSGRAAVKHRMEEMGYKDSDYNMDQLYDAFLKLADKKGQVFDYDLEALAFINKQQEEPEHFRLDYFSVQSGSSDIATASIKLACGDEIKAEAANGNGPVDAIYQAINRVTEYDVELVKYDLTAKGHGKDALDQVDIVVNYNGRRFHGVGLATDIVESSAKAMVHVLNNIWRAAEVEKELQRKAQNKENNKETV

[3] = target: Enterobacter cloacae isopropylmalate synthase (Gene Accession No. WP_014830637, SEQ ID NO: 2) variant 1460, D348E/D350E/M353L/Q355N/H97A/S139G/N167G/P169A/G462D (Enterobacter cloacae, UniProt A0A0H3CGL5, D348E/D350E/G462D/H97A/M353L/N167G/P169A/Q355N/S139G); conditions: pH 7.5, 30° C.
Enterobacter cloacae isopropylmalate synthase (Gene Accession No. WP_014830637, SEQ ID NO: 2) variant 1460, D348E/D350E/M353L/Q355N/H97A/S139G/N167G/P169A/G462D, sequence (A0A0H3CGL5 entry or part of it D348E/D350E/G462D/H97A/M353L/N167G/P169A/Q355N/S139G): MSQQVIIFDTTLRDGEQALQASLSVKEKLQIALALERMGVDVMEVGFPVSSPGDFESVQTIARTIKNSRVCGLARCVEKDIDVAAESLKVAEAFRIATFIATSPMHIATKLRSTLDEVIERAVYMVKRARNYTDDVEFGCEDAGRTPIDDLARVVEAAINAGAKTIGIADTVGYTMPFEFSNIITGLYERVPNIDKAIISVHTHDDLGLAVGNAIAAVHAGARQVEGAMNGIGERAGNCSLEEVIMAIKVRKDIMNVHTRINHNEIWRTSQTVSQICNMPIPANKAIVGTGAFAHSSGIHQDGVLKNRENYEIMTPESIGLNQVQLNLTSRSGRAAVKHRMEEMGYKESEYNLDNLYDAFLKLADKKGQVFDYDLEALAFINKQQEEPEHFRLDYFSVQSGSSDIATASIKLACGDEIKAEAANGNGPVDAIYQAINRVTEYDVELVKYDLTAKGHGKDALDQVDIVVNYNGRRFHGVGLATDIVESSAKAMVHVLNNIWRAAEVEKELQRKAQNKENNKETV

[4] = target: Enterobacter cloacae isopropylmalate synthase (Gene Accession No. WP_014830637, SEQ ID NO: 2) variant 1457, M255L/R260A/N264Q/H97A/S139G/N167G/P169A/G462D (Enterobacter cloacae, UniProt A0A0H3CGL5, G462D/H97A/M255L/N167G/N264Q/P169A/R260A/S139G); conditions: pH 7.5, 30° C.
Enterobacter cloacae isopropylmalate synthase (Gene Accession No. WP_014830637, SEQ ID NO: 2) variant 1457, M255L/R260A/N264Q/H97A/S139G/N167G/P169A/G462D, sequence (A0A0H3CGL5 entry or part of it G462D/H97A/M255L/N167G/N264Q/P169A/R260A/S139G): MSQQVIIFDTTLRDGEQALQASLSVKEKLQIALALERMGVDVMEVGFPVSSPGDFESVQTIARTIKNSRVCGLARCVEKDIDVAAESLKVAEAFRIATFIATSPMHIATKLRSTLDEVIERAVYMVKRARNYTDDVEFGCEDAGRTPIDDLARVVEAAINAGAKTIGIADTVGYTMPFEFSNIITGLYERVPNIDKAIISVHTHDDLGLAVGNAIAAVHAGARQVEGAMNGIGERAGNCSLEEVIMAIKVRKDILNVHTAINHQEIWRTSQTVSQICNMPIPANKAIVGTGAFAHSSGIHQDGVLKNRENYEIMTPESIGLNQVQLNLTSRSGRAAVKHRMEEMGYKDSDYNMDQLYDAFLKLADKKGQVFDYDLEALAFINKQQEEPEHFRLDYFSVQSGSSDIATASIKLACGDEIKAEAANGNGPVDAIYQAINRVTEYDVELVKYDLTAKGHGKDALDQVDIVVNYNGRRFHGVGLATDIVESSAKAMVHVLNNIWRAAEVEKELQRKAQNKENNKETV

[5] = tested on: Citrobacter freundii MGH 56 isopropylmalate synthase (Gene Accession No. KDF09799, SEQ ID NO: 1) variant 1467, G181A/A182G/G210A/A214S/H97A/S139G/N167G/P169A/G4 …; conditions: 2-ketooctanoate
[6] = target: Citrobacter freundii MGH 56 isopropylmalate synthase (Gene Accession No. KDF09799, SEQ ID NO: 1) variant 1467, G181A/A182G/G210A/A214S/H97A/S139G/N167G/P169A/G4 (Citrobacter freundii, UniProt A0A0D7LMP4, A182G/A214S/G181A/G210A/G462D/H97A/N167G/P169A/S139G); conditions: pH 7.5, 30° C.
Citrobacter freundii MGH 56 isopropylmalate synthase (Gene Accession No. KDF09799, SEQ ID NO: 1) variant 1467, G181A/A182G/G210A/A214S/H97A/S139G/N167G/P169A/G4, sequence (A0A0D7LMP4 entry or part of it A182G/A214S/G181A/G210A/G462D/H97A/N167G/P169A/S139G): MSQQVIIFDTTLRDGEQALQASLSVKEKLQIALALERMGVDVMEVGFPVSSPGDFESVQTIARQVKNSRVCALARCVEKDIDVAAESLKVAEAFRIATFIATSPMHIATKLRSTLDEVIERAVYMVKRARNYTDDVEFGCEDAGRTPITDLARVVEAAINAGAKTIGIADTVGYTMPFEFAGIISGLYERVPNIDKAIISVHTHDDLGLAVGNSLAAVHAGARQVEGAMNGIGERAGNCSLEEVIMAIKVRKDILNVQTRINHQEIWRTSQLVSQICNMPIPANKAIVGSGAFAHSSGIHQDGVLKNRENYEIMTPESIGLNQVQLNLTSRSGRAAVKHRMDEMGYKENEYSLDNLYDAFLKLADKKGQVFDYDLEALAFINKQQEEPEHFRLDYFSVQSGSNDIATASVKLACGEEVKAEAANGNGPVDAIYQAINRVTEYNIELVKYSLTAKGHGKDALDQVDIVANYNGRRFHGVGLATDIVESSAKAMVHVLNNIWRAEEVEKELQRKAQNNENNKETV

[7] = tested on: CC(=O)SCCNC(=O)CCNC(=O)[C@H](O)C(C)(C)COP(=O)(O)OP(=O)(O)OC[C@H]1O[C@@H](n2cnc3c(N)ncnc32)[C@H](O)[C@@H]1OP(=O)(O)O; experiment: purified protein, by the assay type; conditions: pH 7.5; 30.0 °C
[8] = target: Citrobacter freundii MGH 56 isopropylmalate synthase (Gene Accession No. KDF09799, SEQ ID NO: 1) variant 1466, G210A/A214S/H97A/S139G/N167G/P169A/G462D (Citrobacter freundii, UniProt A0A0D7LMP4, A214S/G210A/G462D/H97A/N167G/P169A/S139G); assay type: biochemical; conditions: acetyl-CoA 0-10 mM, 2-ketooctanoate 2 mM, pH 7.5, 30° C.
Citrobacter freundii MGH 56 isopropylmalate synthase (Gene Accession No. KDF09799, SEQ ID NO: 1) variant 1466, G210A/A214S/H97A/S139G/N167G/P169A/G462D, sequence (A0A0D7LMP4 entry or part of it A214S/G210A/G462D/H97A/N167G/P169A/S139G): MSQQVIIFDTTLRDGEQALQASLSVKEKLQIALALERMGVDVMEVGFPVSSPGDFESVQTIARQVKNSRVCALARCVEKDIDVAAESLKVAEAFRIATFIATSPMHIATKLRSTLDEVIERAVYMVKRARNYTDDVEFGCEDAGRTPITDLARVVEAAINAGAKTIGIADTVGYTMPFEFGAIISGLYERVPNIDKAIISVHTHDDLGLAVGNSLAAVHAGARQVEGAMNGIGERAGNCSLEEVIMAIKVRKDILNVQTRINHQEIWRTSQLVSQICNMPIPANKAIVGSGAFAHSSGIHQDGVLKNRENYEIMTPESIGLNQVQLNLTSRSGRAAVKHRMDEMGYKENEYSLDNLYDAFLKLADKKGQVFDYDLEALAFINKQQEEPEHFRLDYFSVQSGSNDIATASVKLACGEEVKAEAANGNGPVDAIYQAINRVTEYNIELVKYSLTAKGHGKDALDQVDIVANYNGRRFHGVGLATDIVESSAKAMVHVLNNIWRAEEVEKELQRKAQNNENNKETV

[9] = substrate: CC(=O)SCCNC(=O)CCNC(=O)[C@H](O)C(C)(C)COP(=O)(O)OP(=O)(O)OC[C@H]1O[C@@H](n2cnc3c(N)ncnc32)[C@H](O)[C@@H]1OP(=O)(O)O; experiment: Kinetic evaluation of isopropylmalate synthase construct 614 (DTNB/CoASH assay); assay type: biochemical, E. coli; conditions: other: acetyl-CoA 0-10 mM, 2-ketooctanoate 2 mM, pH 7.5, 30° C.
Description: (§1) Codons of 13 additional amino acids that included six histidine's were fused upstream of the codon of Met-1 of each IPMS gene sequence. Such a modification allowed expression of a His-tagged IPMS having 13 additional amino acids on the N-terminus. To the resulting modified gene, additional bases were added to introduce a NcoI and a SacI restriction site at the 5′- and 3′-end, respectively, for cloning purposes. The whole DNA sequence was chemically synthesized and cloned into the E. coli expression vector, pETDuet-1 at the NcoI and SacI sites by SGI Inc. His-tagged IPMSs were heterologously expressed in E. coli BL21 (DE3) cells and purified using Co-NTA chromatography. It is noted that none of the Sequence Listings included herein show the histidine-tag that is used, which in this case is […]
(§2) For expressing isopropylmalate synthases and its variants, competent cells of E. coli BL21(DE3) cells (acquired from EMD Biosciences) were transformed using standard procedures with the pETDuet expression vector containig their gene sequences. Cells harboring the expression vector were selected on LB agar plates containing 50 μg/mL of ampicillin. A starter culture was started by transferring a single colony of transformant into 50 mL of LB medium containing 100 μg/mL of ampicillin and incubated at 37° C. with shaking at 220 rpm overnight. On the next day, 7 mL of starter culture was inoculated into 800 mL of Terrific Broth (TB) and the culture was incubated at 37° C. until it reached an OD600 nm of 0.5. Isopropyl β-D-1-thiogalacto-pyranoside (IPTG) at a final concentration of 1 mM was added to induce the expression of the isopropylmalate synthase or its variant and the culture was transferred to a 15° C. incubator for 16 hours (h). At the end of 16 h, the culture was centrifuged at 8000 revolutions per minute (rpm) to pelletize the cells. The cell pellet was stored at −80° C. overnight before purification.
(§3) For isolation and purification of the enzyme, cell pellet taken from 400 mL of expression culture was suspended in B-PER reagent (Thermo Fisher Scientific, Inc., Rockford, Ill.) containing 1 μg/mL of DNAse (Thermo Fisher Scientific, Inc., Rockford, Ill.), 1 μg/mL of lysozyme (Thermo Fisher Scientific, Inc., Rockford, Ill.), 1 millimolar (mM) of dithiothreitol, and protease inhibitor cocktail (RPI Corp., Mount Prospect, Ill.). The suspension was rocked gently for 30 minutes (min) at room temperature and centrifuged at 15,000 times gravity (×g) for 20 min to pelletize cell debris. The supernatant was separated and incubated with 5 mL of Co-NTA resin (Thermo Fisher Scientific, Inc., Rockford, Ill.) that had been pre-equilibrated with an equilibration buffer (50 mM sodium phosphate, pH 8.0, containing 300 mM sodium chloride, 20 mM imidazole, 50 μL protease inhibitor cocktail, and 15% glycerol). Following an incubation period of 1 h at 4° C., the enzyme bound resin was washed with 5 volumes of equilibration buffer. Isopropylmalate synthase or its variants were eluted from the Co-NTA resin with equilibration buffer containing 200 mM imidazole. The eluted proteins were dialyzed against phosphate buffered saline and stored as a 20% glycerol solution at −20° C.
(§4) The evaluation of the LeuA variants was performed in two steps using the high-throughput enzyme assay described below. Initially, all the variants were tested for activity against a single high concentration of 2-KBut, 2-KHex, and 2-KOct. The spectrophotometric isopropylmalate synthase enzyme assay reported by Marcheschi et al (Marcheschi, R. J.; Li, H.; Zhang, K.; Noey, E. L.; Kim, S.; Chaubey, A.; Houk, K. N.; Liao, J. C. A synthetic recursive “+1” pathway for carbon chain elongation. ACS chemical biology 2012, 7, 689-697) was adapted into a high-throughput format in 96-well plates for the kinetic evaluation of the isopropylmalate synthase variants (shown in Table 1). […]

[10] = substrate: CCCCCCC(=O)C(=O)O; experiment: as above; assay type: biochemical, E. coli; conditions: other: 2-ketooctanoate 0-3.2 mM, acetyl-CoA 2 mM, pH 7.5, 30° C.
Description: as §1, §2, §3, §4

[11] = 2-ketooctanoate 0-3.2 mM, acetyl-CoA 2 mM
[12] = acetyl-CoA 0-10 mM, 2-ketooctanoate 2 mM

Citrobacter freundii MGH 56 isopropylmalate synthase (Gene Accession No. KDF09799, SEQ ID NO: 1) variant 1409, H97A/S139G/N167G/P169A/G462D, sequence (A0A0D7LMP4 entry or part of it G462D/H97A/N167G/P169A/S139G): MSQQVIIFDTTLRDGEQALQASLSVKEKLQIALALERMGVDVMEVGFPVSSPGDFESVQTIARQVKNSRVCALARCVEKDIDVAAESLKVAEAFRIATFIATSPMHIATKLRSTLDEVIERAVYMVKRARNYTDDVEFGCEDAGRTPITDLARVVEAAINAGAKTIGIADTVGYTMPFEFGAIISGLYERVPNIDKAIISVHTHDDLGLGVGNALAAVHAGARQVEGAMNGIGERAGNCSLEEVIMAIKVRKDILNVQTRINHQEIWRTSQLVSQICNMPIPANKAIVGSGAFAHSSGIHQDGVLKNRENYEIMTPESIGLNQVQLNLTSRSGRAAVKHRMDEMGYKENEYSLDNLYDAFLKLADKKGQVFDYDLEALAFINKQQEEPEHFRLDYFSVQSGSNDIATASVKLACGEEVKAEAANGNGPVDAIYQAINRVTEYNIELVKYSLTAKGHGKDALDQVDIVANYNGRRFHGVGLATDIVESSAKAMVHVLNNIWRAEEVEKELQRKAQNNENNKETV

**Q.** How did the Km (CCCCCCC(=O)C(=O)O) turn out when “Enterobacter cloacae isopropylmalate synthase (Gene Accession No. WP_014830637, SEQ ID NO: 2) variant 1457, M255L/R260A/N264Q/H97A/S139G/N167G/P169A/G462D (Enterobacter cloacae subsp. cloacae ATCC 13047; G462D/H97A/M255L/N167G/N264Q/P169A/R260A/S139G)” was run?
**A.** 176 ± 9 µM

**Q.** Which Km (CCCCCCC(=O)C(=O)O) does the source give for “Enterobacter cloacae isopropylmalate synthase (Gene Accession No. WP_014830637, SEQ ID NO: 2) variant 1414, H97A/S139G/N167G/P169A/G462D (Enterobacter cloacae subsp. cloacae ATCC 13047; G462D/H97A/N167G/P169A/S139G)” here?
**A.** 124 ± 8 µM

**Q.** For CCCCCCC(=O)C(=O)O [2-Ketooctanoic acid, 2-ketooctanoic acid], which “kcat (2-ketooctanoic acid)” value [1, 11] is on record?
**A.** 0.205 ± 0.0083 s⁻¹

**Q.** And the “kcat/KM (2-ketooctanoic acid)” value [1, 11]?
**A.** 2930 ± 300 M⁻¹ s⁻¹

**Q.** And the “kcat (2-ketooctanoic acid)” value [2, 11]?
**A.** 2.8 ± 0.065 s⁻¹

**Q.** What about the “kcat/KM (2-ketooctanoic acid)” value [2, 11] of the same molecule?
**A.** 22580 ± 983 M⁻¹ s⁻¹

**Q.** And the “kcat (2-ketooctanoic acid)” value [3, 11]?
**A.** 3.5 ± 0.0583 s⁻¹

**Q.** What about the “kcat/KM (2-ketooctanoic acid)” value [3, 11] of the same molecule?
**A.** 20620 ± 983 M⁻¹ s⁻¹

**Q.** What about the “kcat (2-ketooctanoic acid)” value [4, 11] of the same molecule?
**A.** 4.12 ± 0.09 s⁻¹

**Q.** And the “kcat/KM (2-ketooctanoic acid)” value [4, 11]?
**A.** 23550 ± 983 M⁻¹ s⁻¹

**Q.** And the “% more efficient than construct 614 in capturing 2-ketooctanoate (kcat/KM)” value ([5]; vs E. coli construct 614)?
**A.** 30-40%

**Q.** What about the “fold more efficient than parent construct 1409 in capturing 2-ketooctanoate (kcat/KM)” value ([5]; vs parent 1409) of the same molecule?
**A.** 9 fold

**Q.** And the “kcat (2-ketooctanoic acid)” value [6, 11]?
**A.** 2.47 ± 0.083 s⁻¹

**Q.** And the “kcat/KM (2-ketooctanoic acid)” value [6, 11]?
**A.** 26450 ± 1970 M⁻¹ s⁻¹

**Q.** For “Citrobacter freundii MGH 56 isopropylmalate synthase (Gene Accession No. KDF09799, SEQ ID NO: 1) variant 1467, G181A/A182G/G210A/A214S/H97A/S139G/N167G/P169A/G462D (Citrobacter freundii; A182G/A214S/G181A/G210A/G462D/H97A/N167G/P169A/S139G)”, which Km (CCCCCCC(=O)C(=O)O) is on record?
**A.** 92 ± 9 µM

**Q.** “Citrobacter freundii MGH 56 isopropylmalate synthase (Gene Accession No. KDF09799, SEQ ID NO: 1) variant 1409, H97A/S139G/N167G/P169A/G462D (Citrobacter freundii; G462D/H97A/N167G/P169A/S139G)” was tested. Which Km (CCCCCCC(=O)C(=O)O) did it give?
**A.** 64 ± 9 µM

**Q.** And the Km [7]?
**A.** 450 ± 240 µM

**Q.** “Enterobacter cloacae isopropylmalate synthase (Gene Accession No. WP_014830637, SEQ ID NO: 2) variant 1460, D348E/D350E/M353L/Q355N/H97A/S139G/N167G/P169A/G462D (Enterobacter cloacae subsp. cloacae ATCC 13047; D348E/D350E/G462D/H97A/M353L/N167G/P169A/Q355N/S139G)” was tested. Which Km (CCCCCCC(=O)C(=O)O) did it give?
**A.** 170 ± 7 µM

**Q.** CC(=O)SCCNC(=O)CCNC(=O)[C@H](O)C(C)(C)COP(=O)(O)OP(=O)(O)OC[C@H]1O[C@@H](n2cnc3c(N)ncnc32)[C@H](O)[C@@H]1OP(=O)(O)O [acetyl CoA, acetyl coenzyme A] was tested. Which “kcat (acetyl CoA)” value [1, 12] did it give?
**A.** 0.118 ± 0.02 s⁻¹

**Q.** And the “kcat (acetyl CoA)” value [2, 12]?
**A.** 2.35 ± 0.083 s⁻¹

**Q.** What about the “kcat (acetyl CoA)” value [8] of the same molecule?
**A.** 0.4 ± 0.04 s⁻¹

**Q.** And the “kcat (acetyl CoA)” value [3, 12]?
**A.** 3.43 ± 0.267 s⁻¹

**Q.** And the “kcat (acetyl CoA)” value [4, 12]?
**A.** 3.83 ± 0.083 s⁻¹

**Q.** And the “kcat (acetyl CoA)” value [6, 12]?
**A.** 5.2 ± 0.25 s⁻¹

B1: E. coli isopropylmalate synthase (LeuA, Gene Accession No. EG11226) variant 614, H97A/S139G/N167G/P169A/G462D (Escherichia coli K-12; … (protein)
chain: MSQQVIIFDTTLRDGEQALQASLSVKEKLQIALALERMGVDVMEVGFPVSSPGDFESVQTIARQVKNSRVCALARCVEKDIDVAAESLKVAEAFRIATFIATSPMHIATKLRSTLDEVIERAIYMVKRARNYTDDVEFGCEDAGRTPIADLARVVEAAINAGATTIGIADTVGYTMPFEFAGIISGLYERVPNIDKAIISVHTHDDLGLAVGNSLAAVHAGARQVEGAMNGIGERAGNCSLEEVIMAIKVRKDILNVHTAINHQEIWRTSQLVSQICNMPIPANKAIVGSGAFAHSSGIHQDGVLKNRENYEIMTPESIGLNQIQLNLTSRSGRAAVKHRMDEMGYKESEYNLDNLYDAFLKLADKKGQVFDYDLEALAFIGKQQEEPEHFRLDYFSVQSGSNDIATAAVKLACGEEVKAEAANGNGPVDAVYQAINRITEYNVELVKYSLTAKGHGKDALDQVDIVANYNGRRFHGVGLATDIVESSAKAMVHVLNNIWRAAEVEKELQRKAQHNENNKETV
notes: His-tag (13 additional amino acids, six histidines) (N); made in house; host or cells: E. coli BL21 (DE3)
**Q.** For B1, which Km [9] is on record?
**A.** 830 ± 50 µM

**Q.** And the kcat [9]?
**A.** 4.4 ± 0.133 s⁻¹

**Q.** What about the kcat/Km [9] of the same molecule?
**A.** 5370 ± 383 M⁻¹ s⁻¹

**Q.** What about the Km [10] of the same molecule?
**A.** 250 ± 35 µM

**Q.** What about the kcat [10] of the same molecule?
**A.** 4.53 ± 0.3 s⁻¹

**Q.** And the kcat/Km [10]?
**A.** 18600 ± 1950 M⁻¹ s⁻¹
